Test results from publication PMC6264278, “Corydaline Inhibits Multiple Cytochrome P450 and UDP-Glucuronosyltransferase Enzyme Activities in Human Liver Microsomes” (Molecules, 2011).
Like-named read-outs stand apart in the source and are kept apart here.

Columns and labels:
Type in all cases: in vitro ADME
CYP2C9 = target: T1, CYP2C9 (Homo sapiens, UniProt P11712); assay: CYP2C9 diclofenac 4-hydroxylation inhibition in pooled human liver microsomes; settings: for IC50: 10 μM diclofenac, mean ± SD, n = 3
T1 construct: using pooled human liver microsomes; tissue BD Gentest Co. H161; host or cells: pooled human liver microsomes
Experimental: (§1) Phenacetin O-deethylase, coumarin 7-hydroxylase, amodiaquine N-deethylase, diclofenac 4-hydroxylase, S-mephenytoin 4-hydroxylase, bufuralol hydroxylase, and midazolam 1’-hydroxylase activities were determined as probe activities for CYP1A2, CYP2A6, CYP2C8, CYP2C9, CYP2C19, CYP2D6, and CYP3A4, respectively, using cocktail incubation and liquid chromatography-tandem mass spectrometry (LC/MS/MS). The incubation mixtures were prepared in a total volume of 200 μL, as follows: pooled human liver microsomes (0.25 mg/mL), 1.3 mM NADPH, 3.3 mM MgCl2, 50 mM potassium phosphate buffer (pH 7.4), and a cocktail of probe substrates and various concentrations of corydaline (1−200 μM). The substrates were used at concentrations approximately equal to their respective Km values: 50 μM phenacetin, 2.5 μM coumarin, 2.5 μM amodiaquine, 10 μM diclofenac, 100 μM S-mephenytoin, 5 μM bufuralol, and 2.5 μM midazolam. After a 3-min pre-incubation period at 37 °C, the reactions were initiated by addition of an NADP generating system and incubated for 20 min at 37 °C in a shaking water bath. After incubation, the reaction was stopped by placement of the tubes on ice and addition of 100 μL of ice-cold methanol containing internal standards (^13C2,^15N-acetaminophen for acetaminophen and N-desethylamodiaquine, d5-7-hydroxycoumarin for 7-hydroxycoumarin, ^13C6-4-hydroxydiclofenac for 4-hydroxydiclofenac, d3-4-hydroxy-mephenytoin for 4-hydroxymephenytoin and hydroxymidazolam, d9-1-hydroxybufuralol for 1-hydroxybufuralol). The incubation mixtures were then centrifuged at 13,000 × g for 5 min. All incubations were performed in triplicate and the mean values were used. […] The reaction was started by addition of a cocktail of CYP probe substrates.
All 7 metabolites produced from the cocktail of CYP isoform-specific substrates were simultaneously determined by LC/MS/MS [25]. The system consisted of a tandem quadrupole mass spectrometer (TSQ Quantum Access, ThermoFisher Scientific, San Jose, CA, USA) coupled with a Nanospace SI-2 LC system. Separation was performed on an Atlantis dC18 column (5 μm, 2.1 mm i.d. ×100 mm, Waters, Milford, MA, USA) using the gradient elution of a mixture of 5% methanol in 0.1% formic acid (mobile phase A) and 95% methanol in 0.1% formic acid (mobile phase B) at a flow rate of 0.25 mL/min: 10% mobile phase B for 1 min, 10% to 95% mobile phase B for 1 min, 95% mobile phase B for 5 min. The column and autosampler temperatures were 50 and 6 °C, respectively. After 1.5 min, the LC eluent was diverted from waste to the mass spectrometer fitted with the electrospray ionization (ESI) source and operated in positive ion mode. […] Quantification was performed by selected reaction monitoring (SRM) of the [M+H]^+ ion and the related product ion for each metabolite. […]
(§2) Reactions were initiated by addition of NADPH at 37 °C and stopped after 15 min by placement of the incubation tubes on ice and addition of ice-cold methanol (100 μL) containing an internal standard (2.0 μg/mL ^13C6-4-hydroxydiclofenac for diclofenac, 0.5 μg/mL d3-4-hydroxymephenytoin for mephenytoin, or 0.5 μg/mL d9-1-hydroxy-bufuralol for bufuralol). The incubation mixtures were centrifuged at 13,000 × g for 5 min, and aliquots (5 μL) of the supernatants were analyzed by LC/MS/MS. […] Aliquots (5 μL) were analyzed by LC/MS/MS. […]

CYP3A = assay: Time- and concentration-dependent inactivation of CYP3A-mediated midazolam hydroxylation in human liver microsomes; settings: probe midazolam (1'-hydroxylation), estimated from kobs vs corydaline concentration (10-150 μM)
Experimental: The inhibitory effects of corydaline toward seven major human CYP isoforms and four major human UGT isoforms were evaluated using cocktail CYP probe substrates and each UGT probe substrate in human liver microsomes, respectively. […] To determine whether midazolam metabolism is inhibited by corydaline, we performed time- and concentration-dependent inactivation assays in human liver microsomes. […] Values for kobs were plotted against corydaline concentration and used for estimation of maximal rates (kinact) and Ki values in human liver microsomes (Figure 2b).

CYP2C19 = target: T2, CYP2C19 (Homo sapiens, UniProt P33261); assay: CYP2C19 S-mephenytoin 4'-hydroxylation inhibition in pooled human liver microsomes; settings: for IC50: 100 μM S-mephenytoin, mean ± SD, n = 3
T2 construct: using pooled human liver microsomes; tissue BD Gentest Co. H161; host or cells: pooled human liver microsomes
Experimental: as §1
All 7 metabolites produced from the cocktail of CYP isoform-specific substrates were simultaneously determined by LC/MS/MS [25]. The system consisted of a tandem quadrupole mass spectrometer (TSQ Quantum Access, ThermoFisher Scientific, San Jose, CA, USA) coupled with a Nanospace SI-2 LC system. […] Quantification was performed by selected reaction monitoring (SRM) of the [M+H]^+ ion and the related product ion for each metabolite. […]
as §2

[1] = Lineweaver, Dixon and secondary reciprocal plots

T1 sequence (P11712 whole entry): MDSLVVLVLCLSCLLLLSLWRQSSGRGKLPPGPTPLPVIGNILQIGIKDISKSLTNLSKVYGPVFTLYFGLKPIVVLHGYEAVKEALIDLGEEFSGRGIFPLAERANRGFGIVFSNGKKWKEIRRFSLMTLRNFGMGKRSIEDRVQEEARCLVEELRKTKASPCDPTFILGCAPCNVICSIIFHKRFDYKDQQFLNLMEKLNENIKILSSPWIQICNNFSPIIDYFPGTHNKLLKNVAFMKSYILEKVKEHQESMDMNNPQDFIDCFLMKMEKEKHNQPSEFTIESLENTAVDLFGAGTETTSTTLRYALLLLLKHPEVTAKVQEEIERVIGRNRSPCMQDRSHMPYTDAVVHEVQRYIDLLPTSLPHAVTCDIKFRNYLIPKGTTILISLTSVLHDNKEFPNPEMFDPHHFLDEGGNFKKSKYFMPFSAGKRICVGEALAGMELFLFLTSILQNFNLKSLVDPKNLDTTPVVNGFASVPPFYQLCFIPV
T2 sequence (P33261 whole entry): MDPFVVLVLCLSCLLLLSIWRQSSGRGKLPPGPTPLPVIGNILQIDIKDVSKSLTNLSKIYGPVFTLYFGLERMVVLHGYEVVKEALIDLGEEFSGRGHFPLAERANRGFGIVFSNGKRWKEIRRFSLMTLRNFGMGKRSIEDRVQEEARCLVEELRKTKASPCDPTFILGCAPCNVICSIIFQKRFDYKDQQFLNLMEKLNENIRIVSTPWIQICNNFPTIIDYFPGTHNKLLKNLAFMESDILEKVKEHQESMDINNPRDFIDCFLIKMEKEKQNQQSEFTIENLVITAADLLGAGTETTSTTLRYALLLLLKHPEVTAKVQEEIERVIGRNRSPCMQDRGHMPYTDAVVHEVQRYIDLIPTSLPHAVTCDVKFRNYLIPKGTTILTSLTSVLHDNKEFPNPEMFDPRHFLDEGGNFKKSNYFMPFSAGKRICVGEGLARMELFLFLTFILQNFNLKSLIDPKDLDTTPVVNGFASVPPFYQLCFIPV

## COc1cc2c(cc1OC)C1C(C)c3ccc(OC)c(OC)c3CN1CC2 (centres unmarked) [Corydaline, 2,3,9,10-tetramethoxy-13-methyl-5,8,13,13a-tetrahydro-6H-isoquino[3,2-a]isoquinoline]
CYP2C9; [1]
  inhibition mode, CYP2C9 diclofenac 4-hydroxylation: noncompetitive
CYP2C9; human liver microsomes, 1-10 μM diclofenac
  Ki: 7.1 ± 0.4 µM
CYP2C9; pH 7.4, probe diclofenac (1-10 μM), 4-hydroxylation, human liver microsomes, 1-10 μM diclofenac
  Ki at 15 min: 7 µM
CYP2C9; pooled human liver microsomes (H161), read-out: IC50 no preincubation, CYP2C9 diclofenac 4-hydroxylation
  IC50: 26.2 ± 4.6 µM
CYP2C9; pre-incubated 30 min with NADPH, read-out: IC50 with preincubation, CYP2C9 diclofenac 4-hydroxylation
  IC50: 30.6 ± 4.1 µM
CYP3A; read-out: apparent Ki of inactivation, CYP3A midazolam hydroxylation
  KI (inactivation): 30 µM
CYP3A; read-out: maximal rate of inactivation (kinact), CYP3A midazolam hydroxylation (converted)
  kinact: 0.00107 s⁻¹
CYP2C19; [1]
  inhibition mode, CYP2C19 S-mephenytoin 4'-hydroxylation: competitive
CYP2C19; human liver microsomes, 10-40 μM S-mephenytoin
  Ki: 1.7 ± 0.5 µM
CYP2C19; pooled human liver microsomes (H161), read-out: IC50 no preincubation, CYP2C19 S-mephenytoin 4'-hydroxylation
  IC50: 11.7 ± 1.4 µM
CYP2C19; pre-incubated 30 min with NADPH, read-out: IC50 with preincubation, CYP2C19 S-mephenytoin 4'-hydroxylation
  IC50: 19.2 ± 1.8 µM
